# From patent publication EP0402852A1, “Irreversible bombesin antagonists” (priority 1989, dated 1990)
# Where two headings read alike, the source gives them in different places. Starred links: 1 amine or outer side, 2 acyl side, 3 side chain; linkers in the order of their positions; H or OH if unused. Non-standard residues stand in square brackets, D forms with d. Residues, ends and D or L forms follow the SMILES beside them. *: point of attachment. X2 = CC(C)C[C@@H](CN[C@@H](CC(C)C)C(N)=O)N*; Carbamoyl(2-ClEt,NO) = O=NN(CCCl)C(=O)*; X1 = O=C(c1ccc(N(CCCl)CCCl)cc1)*; pGlu = O=C1CC[C@@H](C(=O)O)N1; Suc = O=C(CCC(=O)[*:2])[*:1]; Nle = CCCC[C@H](N)C(=O)O; CH2Cl = ClC*
# Tests used:
# bombesin receptors = biological target: T1, bombesin receptors (Mus musculus, UniProt P21729); experiment: Binding affinity for the bombesin receptors on mouse Swiss 3T3 fibroblasts
# T1 construct: bombesin receptors was determined on mouse Swiss 3T3 fibroblasts; endogenous in cells; host or cells: mouse Swiss 3T3 fibroblasts
# T1 sequence (P21729 whole entry): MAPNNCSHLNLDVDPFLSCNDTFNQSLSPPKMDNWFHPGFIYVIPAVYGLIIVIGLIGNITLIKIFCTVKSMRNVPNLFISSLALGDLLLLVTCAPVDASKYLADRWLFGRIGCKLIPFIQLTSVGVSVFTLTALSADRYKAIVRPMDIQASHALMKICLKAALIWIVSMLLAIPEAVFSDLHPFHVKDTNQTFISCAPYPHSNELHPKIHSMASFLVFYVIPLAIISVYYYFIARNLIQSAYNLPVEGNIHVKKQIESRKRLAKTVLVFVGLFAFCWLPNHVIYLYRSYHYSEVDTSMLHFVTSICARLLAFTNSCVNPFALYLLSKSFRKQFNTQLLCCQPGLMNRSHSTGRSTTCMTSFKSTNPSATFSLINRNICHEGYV
# Description: The binding affinity of the compounds of the present invention for the bombesin receptors was determined on mouse Swiss 3T3 fibroblasts (I. Zachary and E. Rozengurt (1985) Proc. Natl. Acad. Sci. USA, 82, 7616-7620) (Table 1).
# [1] = test system: mouse Swiss 3T3 fibroblasts; experiment: Mitogenesis: [H³]thymidine incorporation in quiescent, confluent Swiss 3T3 cells; assay type: cell-based; details: for FOLD INCREASE OVER BASAL VALUE: [H³]thymidine incorporation, compound alone
# Description: The effect on mitogenesis was determined in quiescent and confluent Swiss 3T3 cells maintained in serum free medium (A.N.Corps et al (1985) Biochem J. 231, 781-785). In a first set of experiments, analogues are given alone or in combination with bombesin. In a second set of experiments, cells are pre-treated with the alkylating peptides, washed, left at 37°C for 24 hours and then challenged with bombesin. In both cases, DNA synthesis was evaluated as [H³]thymidine incorporation (Table 2).
# [2] = test system: p115 protein associated with the bombesin receptor; experiment: Phosphorylation of the p115 protein (activation of protein-tyrosin kinase); assay type: cell-based
# Description: Mitogenic effect of bombesin and its analogues were also evaluated as activation of the protein-tyrosin kinase that phosphorylates a 115 KD protein (p115) associated with the bombesin receptor complex (D. Cirillo et al. (1986) Mol.Cell. Biol. 6, 4641- 4649) (Table 3). In addition, exposure to these peptides in the 0.1-50 µM range was associated with significant reduction in the growth of SCLC cell lines (such as NCI-H345, NCI-N592, NCI-H128), as well as of prostatic carcinoma cell lines (such as DU145 and PC3).
# [3] = binding affinity on mouse Swiss 3T3 fibroblasts
# [4] = binding affinity on mouse Swiss 3T3 fibroblasts, read-out: ID₅₀
compound,measurement,setting,value
4-(ClCH₂CH₂)₂NC₆H₄CO-Thr-Gln-Trp-Ala-Val-Gly-His(Dnp)-Leu-Met-NH₂ (TQWAVGH; N-mustard benzoyl; His(Dnp)-Leu-Met-NH2; printed: Thr-Gln-Trp-Ala-Val-Gly-His) [III],ID₅₀,bombesin receptors; [3],1815 ± 330 nM
same,% INHIBITION IN THE PRESENCE OF 25nM BBS,"[1]; A: analogues given in combination with BBS, 0.5µM",0%
same,% INHIBITION IN THE PRESENCE OF 25nM BBS,"[1]; A: analogues given in combination with BBS, 5 µM",0%
same,% INHIBITION IN THE PRESENCE OF 25nM BBS,"[1]; B: cells pre-treated with analogues, washed, left at 37°C for 24 h, then challenged with BBS, 0.5µM",51±11%
same,% INHIBITION IN THE PRESENCE OF 25nM BBS,"[1]; B: cells pre-treated with analogues, washed, left at 37°C for 24 h, then challenged with BBS, 5 µM",53+8%
same,FOLD INCREASE OVER BASAL VALUE,[1]; 0.5µM,2.3
same,FOLD INCREASE OVER BASAL VALUE,[1]; 5 µM,3.4
same,MINIMAL ACTIVE DOSE,[2],500 nM
"CSCC[C@H](NC(=O)[C@H](CC(C)C)NC(=O)CNC(=O)[C@@H](NC(=O)[C@H](C)NC(=O)[C@H](Cc1c[nH]c2ccccc12)NC(=O)[C@H](CCC(N)=O)NC(=O)[C@@H](NC(=O)c1ccc(N(CCCl)CCCl)cc1)[C@@H](C)O)C(C)C)C(N)=O [I, 4-(ClCH₂CH₂)₂NC₆H₄CO-Thr-Gln-Trp-Ala-Val-Gly-Leu-Met-NH₂] (X1-TQWAVGLM-NH2)",IC50,bombesin receptors,1360 ± 266 nM
"CCCC[C@H](NC(=O)[C@H](CC(C)C)NC(=O)CNC(=O)[C@@H](NC(=O)[C@H](C)NC(=O)[C@H](Cc1c[nH]c2ccccc12)NC(=O)[C@H](CCC(N)=O)NC(=O)[C@@H](NC(=O)c1ccc(N(CCCl)CCCl)cc1)[C@@H](C)O)C(C)C)C(N)=O [II, 4-(ClC₂CH₂)₂NC₆H₄CO-Thr-Gln-Trp-Ala-Val-Gly-Leu-Nle-NH₂] (X1-TQWAVGL[Nle]-NH2)",IC50,bombesin receptors,438 ± 111 nM
"CSCC[C@H](NC(=O)[C@H](CC(C)C)NC(=O)[C@H](Cc1c[nH]cn1)NC(=O)CNC(=O)[C@@H](NC(=O)[C@H](C)NC(=O)[C@H](Cc1c[nH]c2ccccc12)NC(=O)[C@H](CCC(N)=O)NC(=O)[C@@H](NC(=O)c1ccc(N(CCCl)CCCl)cc1)[C@@H](C)O)C(C)C)C(N)=O [IV, 4-(ClCH₂CH₂)₂NC₆H₄CO-Thr-Gln-Trp-Ala-Val-Gly-His-Leu-Met-NH₂]",IC50,bombesin receptors,0.7 ± 0.2 nM
"CCCC[C@H](NC(=O)[C@H](CC(C)C)NC(=O)CNC(=O)[C@@H](NC(=O)[C@H](C)NC(=O)[C@H](Cc1c[nH]c2ccccc12)NC(=O)[C@H](CCC(N)=O)NC(=O)[C@@H](NC(=O)N(CCCl)N=O)[C@@H](C)O)C(C)C)C(N)=O [V, ClCH₂CH₂N(NO)CO-Thr-Gln-Trp-Ala-Val-Gly-Leu-Nle-NH₂] ({Carbamoyl(2-ClEt,NO)}-TQWAVGL[Nle]-NH2)",IC50,bombesin receptors,1340 ± 199 nM
"CCCC[C@H](NC(=O)CCC(=O)N[C@H](C(=O)N[C@@H](CCC(N)=O)C(=O)N[C@@H](Cc1c[nH]c2ccccc12)C(=O)N[C@@H](C)C(=O)N[C@H](C(=O)NCC(=O)N[C@@H](CC(C)C)C(=O)N[C@@H](CCSC)C(N)=O)C(C)C)[C@@H](C)O)C(=O)CCl [VI, CH₃(CH₂)₃CH(COCH₂Cl)NHCO(CH₂)₂CO-Thr-Gln-Trp-Ala-Val-Gly-Leu-Met-NH₂] ({CH2Cl-Nle-Suc}-TQWAVGLM-NH2)",IC50,bombesin receptors; [4],648 ± 290 nM
"CC(C)C[C@@H](CN[C@@H](CC(C)C)C(N)=O)NC(=O)[C@H](Cc1cnc[nH]1)NC(=O)CNC(=O)[C@@H](NC(=O)[C@H](C)NC(=O)[C@H](Cc1c[nH]c2ccccc12)NC(=O)[C@H](CCC(N)=O)NC(=O)[C@H](CC(N)=O)NC(=O)CNC(=O)[C@H](CC(C)C)NC(=O)[C@H](CCCN=C(N)N)NC(=O)[C@H](CCC(N)=O)NC(=O)[C@@H]1CCC(=O)N1)C(C)C [[Leu¹³Ψ(CH₂-NH)Leu¹⁴]BBS, reference compound] ([pGlu]QRLGNQWAVGH-X2)",IC50,bombesin receptors,214 ± 30 nM
"Glp-Gln-Arg-Leu-Gly-Asn-Gln-Trp-Ala-Val-Gly-His-Leu-Met-NH₂ [BBS, reference compound]",ID₅₀,bombesin receptors; [3],12.6 ± 3.8 nM
same,FOLD INCREASE OVER BASAL VALUE,[1]; 5nM,3.0±1
same,MINIMAL ACTIVE DOSE,[2],3 nM
Spantide [reference compound],IC50,bombesin receptors; [4],11100 nM
same,MINIMAL ACTIVE DOSE,[2],> 10000 nM
